Values after ≈ are worked out from the molar mass of the structure shown.
Assays:
[1] = tested on: K. pneumoniae ATCC 13883; assay: MIC assay, CLSI broth microdilution in CAMH broth; format: cell-based, Klebsiella pneumoniae; settings: K. pneumonias ATCC 13883
Method: (§1) MIC assays for various Gram-negative and Gram-positive strains were conducted in accordance with the CLSI guidelines for broth microdilution. A 96-well plate containing CAMH broth with 2-fold serial dilution of compounds was inoculated with log-phase bacterial at 5×10^5 CFU/mL. The final volume in each well was 100 μL. Each compound was tested in duplicate. The microtiter plates were incubated in an aerobic environment for 18 hours at 37° C. Then the bacterial growth was tested by reading the plate with a SpectraMax iD5 plate reader (Molecular Devices, Inc.) at 600 nm. The MIC was defined as the lowest compound concentration that inhibited bacteria growth.
(§2) The following Gram-negative and Gram-positive strains were used in the aerobic MIC procedure: • P. aeruginosa ATCC 27853 • A. baumannii ATCC 19606 • E. coli ATCC 25922 • E. coli W4573 • E. coli N43 • K. pneumoniae ATCC 10031 • K. pneumoniae ATCC 13883 • S. sonnei ATCC 29930 • P. mirabilis ATCC 29906 • Methicillin-susceptible S. aureus (MSSA) ATCC 19636 • Methicillin-resistant S. aureus (MRSA) ATCC 33951

[2] = tested on: K. pneumoniae ATCC 10031; assay: MIC assay, CLSI broth microdilution in CAMH broth; format: cell-based, Klebsiella pneumoniae; settings: K. pneumonias ATCC 10031
Method: as §1, §2

[3] = tested on: Methicillin-resistant S. aureus (MRSA) ATCC 33591; assay: MIC assay, CLSI broth microdilution in CAMH broth; format: cell-based, Staphylococcus aureus
Method: as §1, with “growth. […]” for “growth.”

[4] = tested on: Methicillin-susceptible S. aureus (MSSA) ATCC 19636; assay: MIC assay, CLSI broth microdilution in CAMH broth; format: cell-based, Staphylococcus aureus
Method: as §1, §2

[5] = tested on: P. aeruginosa ATCC 27853; assay: MIC assay, CLSI broth microdilution in CAMH broth; format: cell-based, Pseudomonas aeruginosa; settings: P. aeruginosa ATCC 278538
Method: as §1, §2

[6] = tested on: E. coli ATCC 25922; assay: MIC assay, CLSI broth microdilution in CAMH broth; format: cell-based, Escherichia coli
Method: as §1, §2

[7] = tested on: E. coli W4573; assay: MIC assay, CLSI broth microdilution in CAMH broth; format: cell-based, Escherichia coli
Method: as §1, §2

[8] = tested on: E. coli N43; assay: MIC assay, CLSI broth microdilution in CAMH broth; format: cell-based, Escherichia coli
Method: as §1, §2

[9] = tested on: P. mirabilis ATCC 29906; assay: MIC assay, CLSI broth microdilution in CAMH broth; format: cell-based, Proteus mirabilis
Method: as §1, §2

[10] = tested on: N. gonorrhoeae ATCC 49226; assay: MIC assay for N. gonorrhoeae, broth microdilution in Todd-Hewitt (TH) broth; format: cell-based; settings: Neisseria gonorrhoeae, ATCC49226; Antibacterial Activity against N. gonorrhoeae ATCC 49226 in TH
Description: MIC assays for N. gonorrhoeae were done using the ATCC 49226 strain. The procedure guidelines recommended by the Clinical and Laboratory Standards Institute (CLSI) for the broth microdilution MIC assay were modified by substituting […]. Also, the recommended bacterial inoculum was modified to meet the high inoculum demands needed for N. gonorrhoeae growth. A 96-well plate containing TH broth with 2-fold serial dilution of compounds was inoculated with log-phase bacterial at 2.5×10^7 CFU/mL. The final volume in each well was 200 μL. Each compound was tested in duplicate. The microtiter plates were incubated in an […] environment for 24 hours at 37° C. using the candle jar technique. Then the bacterial growth was tested by reading the plate with a SpectraMax iD5 plate reader (Molecular Devices, Inc.) at 600 nm. The MIC was defined as the lowest compound concentration that inhibited bacteria growth.

For `CC[C@H]1OC(=O)[C@H](C)[C@@H](O[C@H]2C[C@@](C)(OC)[C@@H](O)[C@H](C)O2)[C@H](C)[C@@H](O[C@@H]2O[C@H](C)C[C@H](N(C)C)[C@H]2O)[C@](C)(O)C[C@@H](C)CN(C)[C@H](C)[C@@H](O)[C@]1(C)O` [AZM, azithromycin, reference compound], the “Intrinsic MIC in CAMH” value [1] was 32¤, the “Intrinsic MIC in CAMH” value [2] was 2¤ and the “Intrinsic MIC in CAMH” value [3] was 1¤. The “Intrinsic MIC in CAMH” value [4] was 1¤, the “Intrinsic MIC in CAMH” value [5] was 64¤ and the “Intrinsic MIC in CAMH” value [6] was 8¤. The “Intrinsic MIC in CAMH” value [7] was 4¤, the “Intrinsic MIC in CAMH” value [8] was 1¤ and the “Intrinsic MIC in CAMH” value [9] was 64¤.

With `Nc1nc(N)c2ccc3c(ccn3Cc3ccc(Br)cc3)c2n1` [Example 2, 7-(4-bromobenzyl)-7H-pyrrolo[2,3-h]quinazoline-2,4-diamine] the “Intrinsic MIC in CAMH” value [1] was 4¤, the “Intrinsic MIC in CAMH” value [2] was ≤0.25¤ and the “Intrinsic MIC in CAMH” value [3] was ≤0.25¤. For the same compound, the MIC [10] was 2 µg/mL (≈ 5.43 µM), the “Intrinsic MIC in CAMH” value [4] was ≤0.25¤ and the “Intrinsic MIC in CAMH” value [5] was >128¤. The “Intrinsic MIC in CAMH” value [6] was 2¤, the “Intrinsic MIC in CAMH” value [7] was 1¤ and the “Intrinsic MIC in CAMH” value [8] was ≤0.25¤. The “Intrinsic MIC in CAMH” value [9] was 4¤.

In the case of `Nc1nc(N)c2ccc3c(ccn3Cc3cccc(Br)c3)c2n1` [Example 3, 7-(3-bromobenzyl)-7H-pyrrolo[2,3-h]quinazoline-2,4-diamine], the “Intrinsic MIC in CAMH” value [1] is reported as >64¤, the “Intrinsic MIC in CAMH” value [2] is reported as 4¤ and the “Intrinsic MIC in CAMH” value [3] is reported as 2¤. The MIC [10] was 0.5 µg/mL (≈ 1.36 µM), the “Intrinsic MIC in CAMH” value [4] was 2¤ and the “Intrinsic MIC in CAMH” value [5] was >64¤. The “Intrinsic MIC in CAMH” value [6] was 32¤, the “Intrinsic MIC in CAMH” value [7] was >64¤ and the “Intrinsic MIC in CAMH” value [8] was 1¤. For the same compound, the “Intrinsic MIC in CAMH” value [9] was >64¤.

For `Nc1nc(N)c2ccc3c(ccn3Cc3ccccc3Br)c2n1` [Example 4, 7-(2-bromobenzyl)-7H-pyrrolo[2,3-h]quinazoline-2,4-diamine], the “Intrinsic MIC in CAMH” value [1] was 8¤, the “Intrinsic MIC in CAMH” value [2] was <0.125¤ and the “Intrinsic MIC in CAMH” value [3] was ≤0.125¤. The MIC [10] was 2 µg/mL (≈ 5.43 µM), the “Intrinsic MIC in CAMH” value [4] was ≤0.125¤ and the “Intrinsic MIC in CAMH” value [5] was >64¤. For the same compound, the “Intrinsic MIC in CAMH” value [6] was 4¤, the “Intrinsic MIC in CAMH” value [7] was 2¤ and the “Intrinsic MIC in CAMH” value [9] was >64¤.

`N#Cc1cccc(Cn2ccc3c4nc(N)nc(N)c4ccc32)c1` [Example 6, 3-((2,4-diamino-7H-pyrrolo[2,3-h]quinazolin-7-yl)methyl)benzonitrile] was tested, and the “Intrinsic MIC in CAMH” value [1] was 16¤, the “Intrinsic MIC in CAMH” value [2] was ≤0.125¤ and the “Intrinsic MIC in CAMH” value [3] was 0.5¤. For the same compound, the MIC [10] was 4 µg/mL (≈ 12.7 µM), the “Intrinsic MIC in CAMH” value [4] was 0.5¤ and the “Intrinsic MIC in CAMH” value [5] was >64¤. For the same compound, the “Intrinsic MIC in CAMH” value [6] was 4¤, the “Intrinsic MIC in CAMH” value [7] was 4¤ and the “Intrinsic MIC in CAMH” value [8] was ≤0.015¤. The “Intrinsic MIC in CAMH” value [9] was >64¤.

In the case of `Nc1nc(N)c2ccc3c(ccn3Cc3ccc(C(F)(F)F)cc3)c2n1` [Example 7, 7-(4-(trifluoromethyl)benzyl)-7H-pyrrolo[2,3-h]quinazoline-2,4-diamine], the “Intrinsic MIC in CAMH” value [1] is reported as 8¤, the “Intrinsic MIC in CAMH” value [2] is reported as ≤0.125¤ and the “Intrinsic MIC in CAMH” value [3] is reported as ≤0.25¤. For the same compound, the MIC [10] was 2 µg/mL (≈ 5.6 µM), the “Intrinsic MIC in CAMH” value [4] was ≤0.25¤ and the “Intrinsic MIC in CAMH” value [5] was >64¤. The “Intrinsic MIC in CAMH” value [6] was 2¤, the “Intrinsic MIC in CAMH” value [7] was 2¤ and the “Intrinsic MIC in CAMH” value [8] was ≤0.015¤. For the same compound, the “Intrinsic MIC in CAMH” value [9] was >64¤.

In the case of `Nc1nc(N)c2ccc3c(ccn3Cc3ccc(C(=O)c4ccccc4)cc3)c2n1` [Example 16, (4-((2,4-diamino-7H-pyrrolo[2,3-h]quinazolin-7-yl)methyl)phenyl)(phenyl)methanone], the “Intrinsic MIC in CAMH” value [1] is reported as >64¤, the “Intrinsic MIC in CAMH” value [2] is reported as ≤0.125¤ and the “Intrinsic MIC in CAMH” value [3] is reported as ≤0.25¤. The MIC [10] was 4 µg/mL (≈ 10.2 µM), the “Intrinsic MIC in CAMH” value [4] was ≤0.25¤ and the “Intrinsic MIC in CAMH” value [5] was >64¤. For the same compound, the “Intrinsic MIC in CAMH” value [6] was 4¤, the “Intrinsic MIC in CAMH” value [7] was 2¤ and the “Intrinsic MIC in CAMH” value [8] was ≤0.015¤. For the same compound, the “Intrinsic MIC in CAMH” value [9] was >64¤.

With `Nc1nc(N)c2ccc3c(ccn3Cc3ccc4ccccc4c3)c2n1` [Example 21, 7-(naphthalen-2-ylmethyl)-7H-pyrrolo[2,3-h]quinazoline-2,4-diamine] the “Intrinsic MIC in CAMH” value [1] was >64¤, the “Intrinsic MIC in CAMH” value [2] was 8¤ and the “Intrinsic MIC in CAMH” value [3] was 4¤. For the same compound, the MIC [10] was 2 µg/mL (≈ 5.89 µM), the “Intrinsic MIC in CAMH” value [4] was 4¤ and the “Intrinsic MIC in CAMH” value [5] was >128¤. The “Intrinsic MIC in CAMH” value [6] was >64¤, the “Intrinsic MIC in CAMH” value [7] was >64¤ and the “Intrinsic MIC in CAMH” value [8] was 8¤. For the same compound, the “Intrinsic MIC in CAMH” value [9] was >64¤.

`Nc1nc(N)c2ccc3c(ccn3C3C=CCCC3)c2n1` (centres unmarked) [Example 26, 7-(cyclohex-2-en-1-yl)-7H-pyrrolo[2,3-h]quinazoline-2,4-diamine] was tested, and the “Intrinsic MIC in CAMH” value [1] was 64¤, the “Intrinsic MIC in CAMH” value [2] was 2¤ and the “Intrinsic MIC in CAMH” value [3] was 1¤. The MIC [10] was 4 µg/mL (≈ 14.3 µM), the “Intrinsic MIC in CAMH” value [4] was 1¤ and the “Intrinsic MIC in CAMH” value [5] was >128¤. For the same compound, the “Intrinsic MIC in CAMH” value [6] was 16¤, the “Intrinsic MIC in CAMH” value [7] was 16¤ and the “Intrinsic MIC in CAMH” value [8] was <0.125¤. For the same compound, the “Intrinsic MIC in CAMH” value [9] was >64¤.

With `Nc1nc(N)c2ccc3c(ccn3CC3CCCCC3)c2n1` [Example 27, 7-(cyclohexylmethyl)-7H-pyrrolo[2,3-h]quinazoline-2,4-diamine] the “Intrinsic MIC in CAMH” value [1] was 4¤, the “Intrinsic MIC in CAMH” value [2] was <0.125¤ and the “Intrinsic MIC in CAMH” value [3] was ≤0.125¤. For the same compound, the MIC [10] was 4 µg/mL (≈ 13.5 µM), the “Intrinsic MIC in CAMH” value [4] was ≤0.125¤ and the “Intrinsic MIC in CAMH” value [5] was >64¤. For the same compound, the “Intrinsic MIC in CAMH” value [6] was 4¤, the “Intrinsic MIC in CAMH” value [7] was 2¤ and the “Intrinsic MIC in CAMH” value [9] was >64¤.

In the case of `Cc1cc2c3nc(N)nc(N)c3ccc2n1Cc1ccc(-c2ccccc2C#N)cc1` [Example 31, 4′-((2,4-diamino-8-methyl-7H-pyrrolo[2,3-h]quinazolin-7-yl)methyl)-[1,1′-biphenyl]-2-carbonitrile], the “Intrinsic MIC in CAMH” value [1] is reported as >64¤, the “Intrinsic MIC in CAMH” value [2] is reported as 0.5¤ and the “Intrinsic MIC in CAMH” value [3] is reported as 0.5¤. For the same compound, the MIC [10] was 1 µg/mL (≈ 2.47 µM), the “Intrinsic MIC in CAMH” value [4] was 0.25¤ and the “Intrinsic MIC in CAMH” value [5] was >128¤. For the same compound, the “Intrinsic MIC in CAMH” value [6] was >64¤, the “Intrinsic MIC in CAMH” value [7] was >64¤ and the “Intrinsic MIC in CAMH” value [8] was <0.125¤. The “Intrinsic MIC in CAMH” value [9] was >64¤.

With `COc1cc(Cc2cnc(N)nc2N)cc(OC)c1OC` [TMP, reference compound] the “Intrinsic MIC in CAMH” value [1] was 2¤, the “Intrinsic MIC in CAMH” value [2] was 0.25¤ and the “Intrinsic MIC in CAMH” value [3] was 0.5¤. The “Intrinsic MIC in CAMH” value [4] was 0.5¤, the “Intrinsic MIC in CAMH” value [5] was >64¤ and the “Intrinsic MIC in CAMH” value [6] was 0.5¤. For the same compound, the “Intrinsic MIC in CAMH” value [7] was 0.5¤, the “Intrinsic MIC in CAMH” value [8] was <0.125¤ and the “Intrinsic MIC in CAMH” value [9] was 1¤.
